Experimental data: patent publication US20040077580A1, “Antisense modulation of PI3K P85 Expression” (priority 2000, published 2004)
Strand notation (5' to 3'): a small letter for the sugar, then the base; units joined by * are phosphorothioate-linked, units joined directly phosphodiester-linked; [ ] holds rarer units or linkages, { } end groups; capitals alone tell only the bases. e = 2'-O-(2-methoxyethyl) (MOE); [5mC] = 5-methylcytosine; d = 2'-deoxy (DNA)

System: human PI3K p85 RNA
Assay: Inhibition of human PI3K p85 mRNA levels by antisense oligonucleotides, real-time quantitative PCR
Assay type: cell-based
Conditions: oligonucleotide 150 nM
Description: Cells were harvested 16 hours after oligonucleotide treatment.
Poly(A)+ mRNA was isolated according to Miura et al., Clin. Chem., 1996, 42, 1758-1764. Other methods for poly(A)+ mRNA isolation are taught in, for example, Ausubel, F. M. et al., Current Protocols in Molecular Biology, Volume 1, pp. 4.5.1-4.5.3, John Wiley & Sons, Inc., 1993. […] 60 μL lysis buffer (10 mM Tris-HCl, pH 7.6, 1 mM EDTA, 0.5 M NaCl, 0.5% NP-40, 20 mM vanadyl-ribonucleoside complex) was added to each well, the plate was gently agitated and then incubated at room temperature for five minutes. 55 μL of lysate was transferred to Oligo d(T) coated 96-well plates (AGCT Inc., Irvine Calif.). Plates were incubated for 60 minutes at room temperature, washed 3 times with 200 μL of wash buffer (10 mM Tris-HCl pH 7.6, 1 mM EDTA, 0.3 M NaCl). After the final wash, the plate was blotted on paper towels to remove excess wash buffer and then air-dried for 5 minutes. 60 μL of elution buffer (5 mM Tris-HCl pH 7.6), preheated to 70° C. was added to each well, the plate was incubated on a 90° C. hot plate for 5 minutes, and the eluate was then transferred to a fresh 96-well plate.
PI3K p85 probes and primers were designed to hybridize to the human PI3K p85 sequence, using published sequence information (GenBank accession number M61906, incorporated herein as SEQ ID NO: 1).
Target sites are indicated by nucleotide numbers, as given in the sequence source reference (Genbank accession no. M61906), to which the oligonucleotide binds. All compounds in Table 1 are oligodeoxynucleotides with phosphorothioate backbones (internucleoside linkages) throughout. […] Data are averages from two experiments. If present, “N.D.” indicates “no data”.
In accordance with the present invention, a second series of oligonucleotides targeted to human PI3K p85 were synthesized. Target sites are indicated by nucleotide numbers, as given in the sequence source reference (Genbank accession no. M61906), to which the oligonucleotide binds.
Cytidine residues in the 2′-MOE wings are 5-methylcytidines.
Data were obtained by real-time quantitative PCR as described in other examples herein and are averaged from two experiments. If present, “N.D.” indicates “no data”.

[1] = phosphorothioate oligodeoxynucleotides, averages from two experiments
[2] = chimeric phosphorothioate oligonucleotides with 2′-MOE wings and deoxy gap, averaged from two experiments

27997 (antisense TTGCCCAACCACTCGTTC; DNA, all phosphorothioate, methylation of C not given here) [compound 27997]
% Inhibition of PI3K p85 mRNA levels [1]: 55%

28007 (antisense AAAGAAGGGATAAGCACT; DNA, all phosphorothioate, methylation of C not given here) [compound 28007]
% Inhibition of PI3K p85 mRNA levels [1]: 7%

28009 (antisense CCAGGCTAAACCAGGCTG; DNA, all phosphorothioate, methylation of C not given here) [compound 28009]
% Inhibition of PI3K p85 mRNA levels [1]: 57%

28024 (antisense eG*eG*e[5mC]*eT*dG*dC*dT*dG*dA*dG*dA*dA*dT*dC*eT*eG*eA*eA) [compound 28024]
% Inhibition of PI3K p85 mRNA levels [2]: 59%

27990 (antisense ATTTCCTGGGATGTGCGG; DNA, all phosphorothioate, methylation of C not given here) [compound 27990]
% Inhibition of PI3K p85 mRNA levels [1]: 52%

27984 (antisense GGCTGCTGAGAATCTGAA; DNA, all phosphorothioate, methylation of C not given here) [compound 27984]
% Inhibition of PI3K p85 mRNA levels [1]: 22%

28044 (antisense eA*e[5mC]*eA*eT*dT*dG*dA*dG*dG*dG*dA*dG*dT*dC*eG*eT*eT*eG) [compound 28044]
% Inhibition of PI3K p85 mRNA levels [2]: 0%

27977 (antisense ATCTTCTTCTCTTTCCTT; DNA, all phosphorothioate, methylation of C not given here) [compound 27977]
% Inhibition of PI3K p85 mRNA levels [1]: 0%

27998 (antisense GTCTTCAGTGTTTTCATT; DNA, all phosphorothioate, methylation of C not given here) [compound 27998]
% Inhibition of PI3K p85 mRNA levels [1]: 0%

28036 (antisense eT*e[5mC]*eA*eA*dC*dT*dT*dC*dT*dT*dT*dT*dG*dC*e[5mC]*eG*eA*eA) [compound 28036]
% Inhibition of PI3K p85 mRNA levels [2]: 59%

28017 (antisense eA*eT*e[5mC]*eT*dT*dC*dT*dT*dC*dT*dC*dT*dT*dT*e[5mC]*e[5mC]*eT*eT) [compound 28017]
% Inhibition of PI3K p85 mRNA levels [2]: 59%

28033 (antisense eA*eT*e[5mC]*e[5mC]*dT*dT*dT*dG*dT*dA*dT*dT*dT*dC*eT*eT*eT*e[5mC]) [compound 28033]
% Inhibition of PI3K p85 mRNA levels [2]: 46%

27989 (antisense ACCACAGAACTGAAGGTT; DNA, all phosphorothioate, methylation of C not given here) [compound 27989]
% Inhibition of PI3K p85 mRNA levels [1]: 0%

27982 (antisense ATTTCACTGTAAACGGCT; DNA, all phosphorothioate, methylation of C not given here) [compound 27982]
% Inhibition of PI3K p85 mRNA levels [1]: 19%

28013 (antisense TTCTGGCACTTTCTATGA; DNA, all phosphorothioate, methylation of C not given here) [compound 28013]
% Inhibition of PI3K p85 mRNA levels [1]: 28%

27995 (antisense ATTGGTCTCTCGTCTTTC; DNA, all phosphorothioate, methylation of C not given here) [compound 27995]
% Inhibition of PI3K p85 mRNA levels [1]: 0%

28047 (antisense eA*eA*eA*eG*dA*dA*dG*dG*dG*dA*dT*dA*dA*dG*e[5mC]*eA*e[5mC]*eT) [compound 28047]
% Inhibition of PI3K p85 mRNA levels [2]: 18%

28056 (antisense e[5mC]*e[5mC]*eA*eA*dC*dA*dA*dA*dA*dC*dA*dG*dT*dC*e[5mC]*eA*eA*eA) [compound 28056]
% Inhibition of PI3K p85 mRNA levels [2]: 15%

28026 (antisense eA*eG*eT*eA*dG*dG*dT*dT*dT*dT*dG*dG*dT*dG*eG*eT*eT*eT) [compound 28026]
% Inhibition of PI3K p85 mRNA levels [2]: 54%

28000 (antisense CCTGTTTACTGCTCTCCC; DNA, all phosphorothioate, methylation of C not given here) [compound 28000]
% Inhibition of PI3K p85 mRNA levels [1]: 20%

28034 (antisense eT*eT*e[5mC]*eA*dA*dG*dT*dC*dT*dT*dC*dT*dT*dC*e[5mC]*eA*eA*eT) [compound 28034]
% Inhibition of PI3K p85 mRNA levels [2]: 28%

28015 (antisense AACTGAAATAACAACTTA; DNA, all phosphorothioate, methylation of C not given here) [compound 28015]
% Inhibition of PI3K p85 mRNA levels [1]: 6%

27992 (antisense TTTCTCATTGCCTTCACG; DNA, all phosphorothioate, methylation of C not given here) [compound 27992]
% Inhibition of PI3K p85 mRNA levels [1]: 0%

27978 (antisense GCTTCCTGTCCATCACTG; DNA, all phosphorothioate, methylation of C not given here) [compound 27978]
% Inhibition of PI3K p85 mRNA levels [1]: 29%

28046 (antisense eA*eT*e[5mC]*eA*dG*dA*dC*dT*dG*dG*dA*dG*dA*dG*eG*eA*eG*e[5mC]) [compound 28046]
% Inhibition of PI3K p85 mRNA levels [2]: 32%

28032 (antisense eT*eT*eT*e[5mC]*dT*dC*dA*dT*dT*dG*dC*dC*dT*dT*e[5mC]*eA*e[5mC]*eG) [compound 28032]
% Inhibition of PI3K p85 mRNA levels [2]: 35%

27994 (antisense TTCAAGTCTTCTTCCAAT; DNA, all phosphorothioate, methylation of C not given here) [compound 27994]
% Inhibition of PI3K p85 mRNA levels [1]: 15%

27988 (antisense ATTCAGCATTTTGTAAGG; DNA, all phosphorothioate, methylation of C not given here) [compound 27988]
% Inhibition of PI3K p85 mRNA levels [1]: 1%

28045 (antisense eG*e[5mC]*e[5mC]*e[5mC]*dT*dT*dT*dG*dC*dT*dT*dT*dC*dC*eA*eG*eA*eG) [compound 28045]
% Inhibition of PI3K p85 mRNA levels [2]: 0%

28016 (antisense CCAACAAAACAGTCCAAA; DNA, all phosphorothioate, methylation of C not given here) [compound 28016]
% Inhibition of PI3K p85 mRNA levels [1]: 6%

27986 (antisense dA*dG*dT*dA*dG*dG*dT*dT*dT*dT*dG*dG*dT*dG*dG*dT*dT*dT) [compound 27986]
% Inhibition of PI3K p85 mRNA levels [1]: 0%

28002 (antisense CTTTACTTCGCCGTCCAC; DNA, all phosphorothioate, methylation of C not given here) [compound 28002]
% Inhibition of PI3K p85 mRNA levels [1]: 41%

28020 (antisense eA*eA*eT*eT*dC*dT*dG*dC*dC*dA*dG*dG*dT*dT*eG*e[5mC]*eT*eG) [compound 28020]
% Inhibition of PI3K p85 mRNA levels [2]: 12%

28010 (antisense TGTCTGGGTCCACCGTGC; DNA, all phosphorothioate, methylation of C not given here) [compound 28010]
% Inhibition of PI3K p85 mRNA levels [1]: 55%

28003 (antisense AAAGCCATAGCCAGTTGC; DNA, all phosphorothioate, methylation of C not given here) [compound 28003]
% Inhibition of PI3K p85 mRNA levels [1]: 0%

28029 (antisense eA*e[5mC]*e[5mC]*eA*dC*dA*dG*dA*dA*dC*dT*dG*dA*dA*eG*eG*eT*eT) [compound 28029]
% Inhibition of PI3K p85 mRNA levels [2]: 57%

27993 (antisense ATCCTTTGTATTTCTTTC; DNA, all phosphorothioate, methylation of C not given here) [compound 27993]
% Inhibition of PI3K p85 mRNA levels [1]: 15%

27996 (antisense TCAACTTCTTTTGCCGAA; DNA, all phosphorothioate, methylation of C not given here) [compound 27996]
% Inhibition of PI3K p85 mRNA levels [1]: 38%

27979 (antisense TTCAATGGCTTCCACGAG; DNA, all phosphorothioate, methylation of C not given here) [compound 27979]
% Inhibition of PI3K p85 mRNA levels [1]: 6%

28004 (antisense ACATTGAGGGAGTCGTTG; DNA, all phosphorothioate, methylation of C not given here) [compound 28004]
% Inhibition of PI3K p85 mRNA levels [1]: 0%

28011 (antisense GACGTGCCTTTCTGCTAC; DNA, all phosphorothioate, methylation of C not given here) [compound 28011]
% Inhibition of PI3K p85 mRNA levels [1]: 28%

28038 (antisense eG*eT*e[5mC]*eT*dT*dC*dA*dG*dT*dG*dT*dT*dT*dT*e[5mC]*eA*eT*eT) [compound 28038]
% Inhibition of PI3K p85 mRNA levels [2]: 0%

27981 (antisense GTAAGTCCAGGAGATAGC; DNA, all phosphorothioate, methylation of C not given here) [compound 27981]
% Inhibition of PI3K p85 mRNA levels [1]: 14%
